In paper PMC5863496, “Mesobuthus Venom-Derived Antimicrobial Peptides Possess Intrinsic Multifunctionality and Differential Potential as Drugs” (Frontiers in Microbiology, 2018):
Ends that are not written are not given here.

Tests used:
Serum stability = type: in vitro ADME; conditions: fresh mouse serum, 37°C, read-out inhibition zone on Micrococcus luteus plates, triplicate
Experimental: To assess serum stability, peptides were dissolved in H2O or fresh mouse serum for the indicated times at 37°C and their residual activity was measured by the inhibition-zone assay (Hultmark, [1998]).

[1] = tested on: Bacillus cereus CGMCC 1.1846; test: Inhibition-zone assay (CL); type: cell-based; conditions: BC CGMCC 1.1846, N.A. = no activity at 0.8 nmol peptide each well
Procedure, shortened: (§1)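 Bacteria (~2 × 10^6 cells/ml) were seeded in 0.8% soft-agar medium (LB, Nutrient Broth or GYM) and grown at 30 or 37°C. Three peptide doses were placed in separate 2 mm wells, and inhibition zones were measured after overnight incubation. CL was calculated from the slope and intercept of a d^2 versus log n plot.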

Escherichia coli JM109 = test: Inhibition-zone assay (CL); type: cell-based; conditions: EC JM109, N.A. = no activity at 0.8 nmol peptide each well
Procedure, shortened: as §1

Escherichia coli D. J45b = test: Inhibition-zone assay (CL); type: cell-based; conditions: EC D. J45b, N.A. = no activity at 0.8 nmol peptide each well
Procedure, shortened: as §1

[2] = tested on: Staphylococcus aureus J708; test: Inhibition-zone assay (CL); type: cell-based; conditions: SA J708, N.A. = no activity at 0.8 nmol peptide each well
Procedure, shortened: as §1

[3] = tested on: Streptomyces scabiei CGMCC 4.1765; test: Inhibition-zone assay (CL); type: cell-based; conditions: SSCA CGMCC 4.1765, N.A. = no activity at 0.8 nmol peptide each well
Procedure, shortened: as §1

Escherichia coli DH5α = test: Inhibition-zone assay (CL); type: cell-based; conditions: EC DH5α, N.A. = no activity at 0.8 nmol peptide each well
Procedure, shortened: as §1

[4] = tested on: Pseudomonas aeruginosa O1; test: Inhibition-zone assay (CL); type: cell-based; conditions: PA O1, N.A. = no activity at 0.8 nmol peptide each well
Procedure, shortened: as §1

[5] = tested on: Pseudomonas aeruginosa 14; test: Inhibition-zone assay (CL); type: cell-based; conditions: PA 14, N.A. = no activity at 0.8 nmol peptide each well
Procedure, shortened: as §1

[6] = tested on: Pseudomonas aeruginosa 374; test: Inhibition-zone assay (CL); type: cell-based; conditions: PA 374, N.A. = no activity at 0.8 nmol peptide each well
Procedure, shortened: as §1

[7] = tested on: Pseudomonas aeruginosa QT1; test: Inhibition-zone assay (CL); type: cell-based; conditions: PA QT1, N.A. = no activity at 0.8 nmol peptide each well
Procedure, shortened: as §1

[8] = tested on: Pseudomonas aeruginosa 11082603; test: Inhibition-zone assay (CL); type: cell-based; conditions: PA 11082603, N.A. = no activity at 0.8 nmol peptide each well
Procedure, shortened: as §1

[9] = tested on: Pseudomonas aeruginosa FRD1; test: Inhibition-zone assay (CL); type: cell-based; conditions: PA FRD1, N.A. = no activity at 0.8 nmol peptide each well
Procedure, shortened: as §1

[10] = tested on: Serratia marcescens ATCC 14041; test: Inhibition-zone assay (CL); type: cell-based; conditions: SMAR ATCC 14041, N.A. = no activity at 0.8 nmol peptide each well
Procedure, shortened: as §1

Candida albicans 4259 = test: Inhibition-zone assay (CL); type: cell-based; conditions: CA 4259, 28°C, N.A. = no activity at 0.8 nmol peptide each well
Pichia pastoris X33 = test: Inhibition-zone assay (CL); type: cell-based; conditions: PP X33, 28°C, N.A. = no activity at 0.8 nmol peptide each well
Aspergillus nidulans A28 = test: Inhibition-zone assay (CL); type: cell-based; conditions: ANID A28, 28°C, N.A. = no activity at 0.8 nmol peptide each well
[11] = tested on: fresh erythrocytes from the pigeons; test: Hemolytic assay, bird (pigeon) erythrocytes; type: cell-based, Columba livia domestica; conditions: peptide 25 μM; bird blood cells; 30 min, 37°C
Experimental: Hemolytic activity of peptides against fresh erythrocytes from the ICR mice (Mus musculus), the lizards (Eremias multiocellata) or the pigeons (Columba livia domestica) was assayed according to the standard method (Zhu et al., [2012a]). An aliquot of freshly prepared venom was diluted with 0.9% NaCl to a protein concentration of ~5 mg/mL for use. The percentage of hemolysis is determined as (Apep-Ablank)/(Atot-Ablank) × 100, in which “A” represents absorbance measured at 570 nm. Ablank and Aprep were evaluated in the absence or presence of the venom or peptides. 100% hemolysis (Atot) was obtained in the presence of 1% Triton X-100.

Candida albicans JX1195 = test: Inhibition-zone assay (CL); type: cell-based; conditions: CA JX1195, 28°C, N.A. = no activity at 0.8 nmol peptide each well
[12] = tested on: Aspergillus nidulans Rcho15; test: Inhibition-zone assay (CL); type: cell-based; conditions: ANID Rcho15, 28°C, N.A. = no activity at 0.8 nmol peptide each well

Compound	Lethal concentration (CL) [1] [µM]	Lethal concentration (CL) (Escherichia coli D. J45b) [µM]	Lethal concentration (CL) [2] [µM]	Lethal concentration (CL) [3] [µM]	Lethal concentration (CL) [4] [µM]	Lethal concentration (CL) [5] [µM]	Lethal concentration (CL) [7] [µM]	Lethal concentration (CL) [8] [µM]	Lethal concentration (CL) (Candida albicans 4259) [µM]	other results
CC[C@H](C)[C@H](NC(=O)CN)C(=O)NCC(=O)N[C@@H](C)C(=O)N[C@H](C(=O)N[C@@H](CC(C)C)C(=O)N[C@@H](CCCCN)C(=O)N[C@H](C(=O)N[C@@H](CC(C)C)C(=O)N[C@H](C(=O)N[C@H](C(=O)NCC(=O)N[C@@H](CC(C)C)C(=O)N1CCC[C@H]1C(=O)N[C@@H](C)C(=O)N[C@@H](CC(C)C)C(=O)N[C@H](C(=O)N[C@@H](CO)C(=O)N[C@@H](Cc1c[nH]c2ccccc12)C(=O)N[C@H](C(=O)N[C@@H](CCCCN)C(=O)N[C@@H](CCCNC(=N)N)C(=O)N[C@@H](CCCCN)C(=O)N[C@@H](CCCNC(=N)N)C(=O)N[C@@H](CCC(N)=O)C(=O)N[C@@H](CCC(N)=O)C(N)=O)[C@@H](C)CC)[C@@H](C)CC)[C@@H](C)O)[C@@H](C)O)C(C)C)C(C)C [Melittin, reference compound]	24.74	24.54	7.80	15.93						residual activity after incubation in mouse serum (Serum stability; 24 h, 0.72-1.44 nmol each well): only little or no activity remained; Lethal concentration (CL) (Escherichia coli JM109): 23.53 µM; Lethal concentration (CL) (Escherichia coli DH5α): 18.20 µM
FFGHLFKLATKIIPSFFRRKNQ [MAC-22]		6.78			12.03	6.78	10.98	14.35		Lethal concentration (CL) [6]: 18.75 µM; Lethal concentration (CL) [9]: 18.75 µM; Lethal concentration (CL) (Pseudomonas solanacearum): 22.08 µM
FFGHLFKLATKIIPSLFQ [MUC-18, reference compound]		22.72	6.86	4.45	41.58	31.40	18.49			
FFGHLFKLATKIIPSLFQRKKE [MUC-22]		7.49			3.79	4.06	6.10	6.10		Lethal concentration (CL) [6]: 16.86 µM; Lethal concentration (CL) [10]: 58.93 µM; Lethal concentration (CL) [9]: 16.86 µM; Lethal concentration (CL) (Pseudomonas solanacearum): 21.61 µM
FLFSLIPSAISGLINAFK-NH2 [MeuFSPL-2]	19.57		6.21	7.75					12.61	residual activity after incubation in mouse serum (Serum stability; 4 h, 0.72 nmol/well): entirely lost
FLFSLIPSAISGLISAFK-NH2 [MeuFSPL-1]	15.33		10.92	1.77					14.80	Lethal concentration (CL) (Pichia pastoris X33): 8.21 µM; Lethal concentration (CL) (Aspergillus nidulans A28): 14.84 µM
FLFSLIPSAISGLISAFKGRRKRDLN-NH2 [MarMEL]	6.69	6.24	4.69	1.56			14.29	8.41	5.17	hemolysis [11]: nearly complete hemolysis; Lethal concentration (CL) (Escherichia coli JM109): 5.55 µM; Lethal concentration (CL) (Pichia pastoris X33): 3.57 µM; Lethal concentration (CL) (Candida albicans JX1195): 5.65 µM; Lethal concentration (CL) (Escherichia coli DH5α): 5.48 µM; Lethal concentration (CL) [12]: 5.65 µM; Lethal concentration (CL) (Aspergillus nidulans A28): 7.14 µM
